Common to all, as to experiment: relative viability (nuclei count vs DMSO), 5 days (fraction); higher = more cells survive
Compound in assay [1]: CC1=NN=C(O1)C2=NN=C(C=C2)N3CCC(CC3)OC4=C(C=CC(=C4)F)Cl + CC1(C)CCC(c2ccc(Cl)cc2)=C(CN2CCN(c3ccc(C(=O)NS(=O)(=O)c4ccc(N[C@H](CCN5CCOCC5)CSc5ccccc5)c(S(=O)(=O)C(F)(F)F)c4)cc3)CC2)C1 [Navitoclax] (partner 0.5 µM)
In outline: (§1)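 Relative viability equals treated-well nuclei counts divided by vehicle-well nuclei counts. Counts came from 4× images of lung cancer cell lines grown in 1536-well plates for 5 days after pin-tool dosing on the day after seeding. Dosing used one drug alone or a fixed anchor-drug dose plus five library-drug doses (not always all listed) in √10 steps, and values are medians of duplicate plates.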

Compound in assay [2]: CC(C)C[C@@H](C(=O)N[C@H](C(=O)OC1CCCC1)c1ccccc1)[C@H](O)C(=O)NO [Tosedostat] + Nc1ncn([C@H]2C[C@H](O)[C@@H](CO)O2)c(=O)n1 [Decitabine] (partner 2 µM)
In outline:
as §1

Compound in assay [3]: CC1=NN=C(O1)C2=NN=C(C=C2)N3CCC(CC3)OC4=C(C=CC(=C4)F)Cl + Nc1ncn([C@H]2C[C@H](O)[C@@H](CO)O2)c(=O)n1 [Decitabine] (partner 2 µM)
In outline:
as §1

Compound in assay [4]: CC(C)C[C@@H](C(=O)N[C@H](C(=O)OC1CCCC1)c1ccccc1)[C@H](O)C(=O)NO [Tosedostat] + COc1cc2c(Oc3ccc(NC(=O)C4(C(=O)Nc5ccc(F)cc5)CC4)cc3F)ccnc2cc1OCCCN1CCOCC1 [Foretinib] (partner 0.25 µM)
In outline: as §1

Consider NCI-H23, for which the relative viability in assay [1] (first compound 0.253 µM) came to 0.808; in assay [1] (first compound 2.53 µM), 0.71; in assay [1] (first compound 8 µM), 0.722; in assay [2] (first compound 0.02 µM), 0.309; in assay [2] (first compound 0.06325 µM), 0.315; in assay [2] (first compound 0.2 µM), 0.323. Besides, the relative viability came out at 0.286 in assay [2] (first compound 0.6325 µM); 0.306 in assay [2] (first compound 2 µM); 0.268 in assay [3] (first compound 0.253 µM); 0.328 in assay [3] (first compound 0.8 µM); 0.295 in assay [3] (first compound 2.53 µM); 0.282 in assay [3] (first compound 8 µM). Further, the relative viability in assay [4] (first compound 0.02 µM) was 1.01; in assay [4] (first compound 0.06325 µM), 0.889; in assay [4] (first compound 0.2 µM), 0.919; in assay [4] (first compound 0.6325 µM), 0.827; in assay [4] (first compound 2 µM), 0.69.
In the case of NCI-H358, the relative viability in assay [2] (first compound 0.02 µM) is 0.238; in assay [2] (first compound 0.06325 µM), 0.188; in assay [2] (first compound 0.2 µM) it was 0.143; in assay [2] (first compound 0.6325 µM), 0.166; in assay [2] (first compound 2 µM), 0.157; in assay [3] (first compound 0.253 µM) it was 0.19. The relative viability in assay [3] (first compound 0.8 µM) is 0.212; in assay [3] (first compound 2.53 µM), 0.197; in assay [3] (first compound 8 µM), 0.181; in assay [4] (first compound 0.02 µM), 0.872; in assay [4] (first compound 0.06325 µM), 0.634; in assay [4] (first compound 0.2 µM), 0.473. Further, the relative viability in assay [4] (first compound 0.6325 µM) amounted to 0.289; in assay [4] (first compound 2 µM), 0.347.
As to NCI-H522, the relative viability in assay [2] (first compound 0.02 µM) is 0.594; in assay [2] (first compound 0.06325 µM) it was 0.619; in assay [2] (first compound 0.2 µM), 0.639; in assay [2] (first compound 0.6325 µM), 0.578; in assay [2] (first compound 2 µM), 0.72; in assay [3] (first compound 0.253 µM), 0.629. Further, the relative viability came to 0.624 in assay [3] (first compound 0.8 µM), 0.573 in assay [3] (first compound 2.53 µM) and 0.65 in assay [3] (first compound 8 µM).
For NCI-H650, the relative viability in assay [2] (first compound 0.02 µM) worked out at 0.291; in assay [2] (first compound 0.06325 µM), 0.339; in assay [2] (first compound 0.2 µM), 0.316; in assay [2] (first compound 0.6325 µM), 0.319; in assay [2] (first compound 2 µM), 0.262; in assay [3] (first compound 0.253 µM) it was 0.334. The relative viability is 0.331 in assay [3] (first compound 0.8 µM); 0.336 in assay [3] (first compound 2.53 µM); 0.285 in assay [3] (first compound 8 µM); 1.05 in assay [4] (first compound 0.02 µM); 1.04 in assay [4] (first compound 0.06325 µM); 0.92 in assay [4] (first compound 0.2 µM). In addition, the relative viability came to 0.941 in assay [4] (first compound 0.6325 µM) and 0.765 in assay [4] (first compound 2 µM).
Regarding NCI-H661, the relative viability in assay [2] (first compound 0.02 µM) was 0.637; in assay [2] (first compound 0.06325 µM), 0.547; in assay [2] (first compound 0.2 µM) it was 0.535; in assay [2] (first compound 0.6325 µM), 0.522; in assay [2] (first compound 2 µM), 0.512; in assay [3] (first compound 0.253 µM), 0.519. For the same cell line, the relative viability in assay [3] (first compound 0.8 µM) was found to be 0.465; in assay [3] (first compound 2.53 µM), 0.407; in assay [3] (first compound 8 µM) it was 0.396; in assay [4] (first compound 0.02 µM), 1.07; in assay [4] (first compound 0.06325 µM), 0.99; in assay [4] (first compound 0.2 µM), 0.98. Besides, the relative viability came out at 0.979 in assay [4] (first compound 0.6325 µM) and 0.937 in assay [4] (first compound 2 µM).
Take NCI-H1299: the relative viability was 0.895 in assay [1] (first compound 0.253 µM); 0.932 in assay [1] (first compound 0.8 µM); 0.894 in assay [1] (first compound 2.53 µM); 0.835 in assay [1] (first compound 8 µM); 1.15 in assay [4] (first compound 0.02 µM); 1.14 in assay [4] (first compound 0.06325 µM). Moreover, the relative viability was determined as 1.14 in assay [4] (first compound 0.2 µM), 1.04 in assay [4] (first compound 0.6325 µM) and 0.966 in assay [4] (first compound 2 µM).
Take NCI-H1563: the relative viability in assay [4] (first compound 0.02 µM) stood at 0.961; in assay [4] (first compound 0.06325 µM), 0.997; in assay [4] (first compound 0.2 µM), 0.958; in assay [4] (first compound 0.6325 µM), 1.12; in assay [4] (first compound 2 µM) it was 1.
In the case of NCI-H1648, the relative viability stood at 0.389 in assay [2] (first compound 0.02 µM); 0.426 in assay [2] (first compound 0.06325 µM); 0.51 in assay [2] (first compound 0.2 µM); 0.421 in assay [2] (first compound 0.6325 µM); 0.399 in assay [2] (first compound 2 µM); 0.378 in assay [3] (first compound 0.253 µM). Moreover, the relative viability in assay [3] (first compound 0.8 µM) was 0.465; in assay [3] (first compound 2.53 µM), 0.433; in assay [3] (first compound 8 µM) it was 0.473.
In the case of NCI-H1703, the relative viability in assay [1] (first compound 0.253 µM) came out at 0.9; in assay [1] (first compound 0.8 µM) it was 0.987; in assay [1] (first compound 2.53 µM) it was 0.783; in assay [1] (first compound 8 µM) it was 0.71; in assay [4] (first compound 0.02 µM), 0.329; in assay [4] (first compound 0.06325 µM), 0.288. Further, the relative viability in assay [4] (first compound 0.2 µM) came out at 0.327; in assay [4] (first compound 2 µM) it was 0.322.
With NCI-H1792, the relative viability in assay [1] (first compound 0.253 µM) came out at 0.4; in assay [1] (first compound 0.8 µM) it was 0.409; in assay [1] (first compound 2.53 µM) it was 0.409; in assay [1] (first compound 8 µM), 0.482; in assay [2] (first compound 0.02 µM), 0.62; in assay [2] (first compound 0.06325 µM) it was 0.506. Moreover, the relative viability came out at 0.52 in assay [2] (first compound 0.2 µM); 0.465 in assay [2] (first compound 0.6325 µM); 0.525 in assay [2] (first compound 2 µM); 0.396 in assay [3] (first compound 0.253 µM); 0.507 in assay [3] (first compound 0.8 µM); 0.558 in assay [3] (first compound 2.53 µM). In addition, in assay [3] (first compound 8 µM), the relative viability was 0.442.
Consider NCI-H2228, for which the relative viability in assay [1] (first compound 0.253 µM) stood at 0.63; in assay [1] (first compound 0.8 µM), 0.592; in assay [1] (first compound 2.53 µM), 0.756; in assay [1] (first compound 8 µM), 0.526; in assay [4] (first compound 0.02 µM) it was 0.998; in assay [4] (first compound 0.06325 µM), 0.774. The relative viability in assay [4] (first compound 0.2 µM) was 1.11; in assay [4] (first compound 0.6325 µM) it was 0.768; in assay [4] (first compound 2 µM), 0.751.
Regarding NCI-H2342, the relative viability in assay [2] (first compound 0.02 µM) worked out at 0.713; in assay [2] (first compound 0.06325 µM) it was 0.688; in assay [2] (first compound 0.2 µM) it was 0.718; in assay [2] (first compound 0.6325 µM), 0.692; in assay [2] (first compound 2 µM), 0.689; in assay [3] (first compound 0.253 µM), 0.579. In addition, the relative viability in assay [3] (first compound 0.8 µM) was found to be 0.552; in assay [3] (first compound 2.53 µM) it was 0.528; in assay [3] (first compound 8 µM) it was 0.5; in assay [4] (first compound 0.02 µM) it was 0.944; in assay [4] (first compound 0.06325 µM) it was 1.01; in assay [4] (first compound 0.2 µM) it was 1.27. Further, the relative viability is 0.924 in assay [4] (first compound 0.6325 µM) and 0.89 in assay [4] (first compound 2 µM).
As to SW 900, the relative viability in assay [2] (first compound 0.02 µM) came out at 0.463; in assay [2] (first compound 0.06325 µM) it was 0.499; in assay [2] (first compound 0.2 µM) it was 0.405; in assay [2] (first compound 0.6325 µM) it was 0.359; in assay [2] (first compound 2 µM), 0.415; in assay [3] (first compound 0.8 µM) it was 0.467. The relative viability amounted to 0.395 in assay [3] (first compound 2.53 µM); 0.426 in assay [3] (first compound 8 µM); 0.854 in assay [4] (first compound 0.02 µM); 0.904 in assay [4] (first compound 0.06325 µM); 0.709 in assay [4] (first compound 0.2 µM); 0.765 in assay [4] (first compound 0.6325 µM). Besides, the relative viability in assay [4] (first compound 2 µM) is 0.61.

Values taken from the supplement of paper PMC10307832.
